Laboratory results published in patent US20260285876A1, “MACROCYCLIC COMPOUNDS AS USP1 INHIBITORS” (GUANGDONG NEWOPP BIOPHARMACEUTICALS CO., LTD., priority 2023, published 2026).

Target: T1, USP1/UAF1 (Homo sapiens, UniProt O94782)
T1 construct: purchased R&D Systems
Assay: Deubiquitination assay for USP1/UAF1 (ubiquitin-rhodamine 110 substrate)
Assay type: biochemical
Conditions: 0.5 nM USP1/UAF1, 150 nM ubiquitin-rhodamine, 50% inhibition compared to DMSO control
Experimental: Deubiquitination assay for USP1/UAF1: compounds described here were tested for their ability to inhibit USP1 deubiquitinase activity in this assay using ubiquitin-rhodamine 110 as the substrate. The assay was conducted in the assay buffer (50 mM Tris-HCl, pH 7.8, 0.5 mM EDTA, 0.1 mg/ml Bovine Serum Albumin, 1 mM DTT, 0.01% Tween-20) in 384 well plates. 0.5 nM USP1/UAF1 (R&D Systems) was incubated with compounds in dose response format for 10 minutes at room temperature. Then the reaction was initiated by addition of 150 nM ubiquitin-rhodamine (R&D Systems). The fluorescence intensity was read after 45 minutes at Ex488/Em535 by CLARIOstar (BMG Labtech). IC50 response curves were plotted.

T1 sequence (O94782 whole entry): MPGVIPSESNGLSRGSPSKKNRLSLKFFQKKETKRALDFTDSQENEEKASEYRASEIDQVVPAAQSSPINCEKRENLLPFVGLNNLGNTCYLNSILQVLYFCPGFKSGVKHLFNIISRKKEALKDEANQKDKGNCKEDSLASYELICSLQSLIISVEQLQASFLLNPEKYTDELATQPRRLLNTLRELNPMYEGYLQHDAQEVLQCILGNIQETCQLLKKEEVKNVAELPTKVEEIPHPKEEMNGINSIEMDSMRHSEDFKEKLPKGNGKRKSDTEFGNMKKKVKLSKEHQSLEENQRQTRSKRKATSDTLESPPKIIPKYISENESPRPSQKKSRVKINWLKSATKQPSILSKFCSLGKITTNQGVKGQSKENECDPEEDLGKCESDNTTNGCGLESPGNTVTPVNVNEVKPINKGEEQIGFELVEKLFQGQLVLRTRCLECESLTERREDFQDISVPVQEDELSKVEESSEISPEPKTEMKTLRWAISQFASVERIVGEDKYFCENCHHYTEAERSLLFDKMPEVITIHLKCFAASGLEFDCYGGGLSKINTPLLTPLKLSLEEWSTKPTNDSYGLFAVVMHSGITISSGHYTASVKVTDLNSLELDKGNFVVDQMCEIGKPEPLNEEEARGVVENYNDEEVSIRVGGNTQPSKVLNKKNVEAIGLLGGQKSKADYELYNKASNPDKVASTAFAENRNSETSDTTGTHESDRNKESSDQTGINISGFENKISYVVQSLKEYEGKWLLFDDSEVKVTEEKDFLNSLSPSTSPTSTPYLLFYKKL
T1 sequence (Q8TAF3 whole entry partner): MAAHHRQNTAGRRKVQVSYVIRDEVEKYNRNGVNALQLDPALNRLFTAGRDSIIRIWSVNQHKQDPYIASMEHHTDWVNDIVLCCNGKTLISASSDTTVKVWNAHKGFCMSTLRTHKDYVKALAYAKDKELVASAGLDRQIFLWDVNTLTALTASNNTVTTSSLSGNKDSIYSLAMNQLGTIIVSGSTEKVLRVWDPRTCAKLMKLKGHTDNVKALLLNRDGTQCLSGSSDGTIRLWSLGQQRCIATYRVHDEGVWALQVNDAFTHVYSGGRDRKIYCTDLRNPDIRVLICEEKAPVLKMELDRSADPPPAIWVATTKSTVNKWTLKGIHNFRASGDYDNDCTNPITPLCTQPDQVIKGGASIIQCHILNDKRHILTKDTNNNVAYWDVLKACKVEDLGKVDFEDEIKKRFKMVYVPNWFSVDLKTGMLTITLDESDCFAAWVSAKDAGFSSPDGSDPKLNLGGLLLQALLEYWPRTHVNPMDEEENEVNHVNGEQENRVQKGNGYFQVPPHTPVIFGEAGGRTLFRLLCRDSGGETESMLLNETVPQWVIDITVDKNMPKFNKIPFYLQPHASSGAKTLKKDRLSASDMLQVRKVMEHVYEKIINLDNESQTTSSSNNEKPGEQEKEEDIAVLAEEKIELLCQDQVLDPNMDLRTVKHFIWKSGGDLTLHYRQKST

`CC(C)n1cc(C(F)(F)F)nc1-c1ccc2cc1C#CCCOc1ncnc(C3CC3)c1-c1ncc3cnn(c3n1)C2` [Example 43] and `CC(C)n1cc(C(F)(F)F)nc1-c1ccc2cc1/C=C/CCOc1ncnc(C3CC3)c1-c1ncc3cnn(c3n1)C2` [Example 44, (E)-1^6-cyclopropyl-4^4-(1-isopropyl-4-(trifluoromethyl)-1H-imidazol-2-yl)-2^1H-9-oxa-2(6,1)-pyrazolo[3,4-d]pyrimidina-1(5,4)-pyrimidina-4(1,3)-benzenacyclononaphan-5-ene] cannot be ordered by IC50: 100 to 1000 nM for the first, no more than 100 nM for the second.

`CC(C)n1cc(C(F)(F)F)nc1-c1ccc2cc1CCCCOc1ncnc(C3CC3)c1-c1ncc3cnn(c3n1)C2` [Example 45, 1^6-cyclopropyl-4^4-(1-isopropyl-4-(trifluoromethyl)-1H-imidazol-2-yl)-2^1H-9-oxa-2(6,1)-pyrazolo[3,4-d]pyrimidina-1(5,4)-pyrimidina-4(1,3)-benzenacyclononaphane] and `CC(C)n1cc(C(F)(F)F)nc1-c1ccc2cc1OCCCCOc1ncnc(C3CC3)c1-c1ncc3cnn(c3n1)C2` [Example 48, 1^6-cyclopropyl-4^4-(1-isopropyl-4-(trifluoromethyl)-1H-imidazol-2-yl)-2^1H-5,10-dioxa-2(6,1)-pyrazolo[3,4-d]pyrimidina-1(5,4)-pyrimidina-4(1,3)-benzenacyclodecaphane] cannot be ordered by IC50: no more than 100 nM for the first, 100 to 1000 nM for the second.

`CC(C)n1cc(C(F)(F)F)nc1-c1ccc2cc1/C=C\CCOc1ncnc(C3CC3)c1-c1ncc3cnn(c3n1)C2` [Example 46, (Z)-1^6-cyclopropyl-4^4-(1-isopropyl-4-(trifluoromethyl)-1H-imidazol-2-yl)-2^1H-9-oxa-2(6,1)-pyrazolo[3,4-d]pyrimidina-1(5,4)-pyrimidina-4(1,3)-benzenacyclononaphan-5-ene] and `CC(C)n1cc(C(F)(F)F)nc1-c1ccc2c(c1)/C=C/CCOc1ncnc(C3CC3)c1-c1ncc3cnn(c3n1)C2` [Example 55, (E)-16-cyclopropyl-44-(1-isopropyl-4-(trifluoromethyl)-1H-imidazol-2-yl)-21H-9-oxa-2(6,1)-pyrazolo[3,4-d]pyrimidina-1(5,4)-pyrimidina-4(1,2)-benzenacyclononaphan-5-ene4(1,2)-benzenacyclononaphane] cannot be ordered by IC50: no more than 100 nM for the first, no more than 100 nM for the second.

`FC(F)(F)c1cn(C2CC2)c(-c2ccc3cc2CCCCOc2ncnc(C4CC4)c2-c2ncc4ccc(n4n2)C3)n1` [Example 47] and `FC(F)(F)c1cn(C2CC2)c(-c2ccc3cc2OCCCOc2ncnc(C4CC4)c2-c2ncc4ccc(n4n2)C3)n1` [Example 52, (Z)-1^6-cyclopropyl-4^4-(1-cyclopropyl-4-(trifluoromethyl)-1H-imidazol-2-yl)-5,9-dioxa-2(2,7)-pyrrolo[2,1-f][1,2,4]triazina-1(5,4)-pyrimidina-4(1,3)-benzenacyclononaphane] cannot be ordered by IC50: no more than 100 nM for the first, no more than 100 nM for the second.

`CC(C)n1cc(C(F)(F)F)nc1-c1ccc2cc1OCCCOc1ncnc(C3CC3)c1-c1ncc3ccc(=O)n(c3n1)C2` [Example 49, 1^6-cyclopropyl-4^4-(1-isopropyl-4-(trifluoromethyl)-1H-imidazol-2-yl)-2^7,2^8-dihydro-5,9-dioxa-2(2,8)-pyrido[2,3-d]pyrimidina-1(5,4)-pyrimidina-4(1,3)-benzenacyclononaphan-27-one] and `Cc1cc(C(F)(F)F)nn1-c1ccc2cc1OCCCOc1ncnc(C3CC3)c1-c1ncc3cnn(c3n1)C2` [Example 56, 1^6-cyclopropyl-4^4-(5-methyl-3-(trifluoromethyl)-1H-pyrazol-1-yl)-2^1H-5,9-dioxa-2(6,1)-pyrazolo[3,4-d]pyrimidina-1(5,4)-pyrimidina-4(1,3)-benzenacyclononaphane] cannot be ordered by IC50: no more than 100 nM for the first, no more than 100 nM for the second.

`FC(F)(F)c1cn(C2CC2)c(-c2ccc3c(c2)/C=C/CCOc2ncnc(C4CC4)c2-c2ncc4ccc(n4n2)C3)n1` [Example 51, (2^1Z,5E)-1^6-cyclopropyl-4^4-(1-cyclopropyl-4-(trifluoromethyl)-1H-imidazol-2-yl)-8-oxa-2(2,7)-pyrrolo[2,1-f][1,2,4]triazina-1(5,4)-pyrimidina-4(1,2)-benzenacyclooctaphan-5-ene] and `FC(F)(F)c1cn(C2CC2)c(-c2ccc3c(c2)/C=C/COc2ncnc(C4CC4)c2-c2ncc4cnn(c4n2)C3)n1` [Example 57] cannot be ordered by IC50: no more than 100 nM for the first, no more than 100 nM for the second.

Molecule `CC(C)n1cc(C(F)(F)F)nc1-c1ccc2c(c1)C#CCOc1ncnc(C3CC3)c1-c1ncc3cnn(c3n1)C2` [Example 54, (E)-16-cyclopropyl-44-(1-isopropyl-4-(trifluoromethyl)-1H-imidazol-2-yl)-21H-9-oxa-2(6,1)-pyrazolo[3,4-d]pyrimidina-1(5,4)-pyrimidina-4(1,2)-benzenacyclononaphan-5-ene4(1,2 benzenacyclononaphane] has an IC50 of no more than 100 nM.
